Test results: patent publication US20240123022A1, “A STABLE ANTI-ANGIOGENIC AND ANTI-INFLAMMATORY PHARMACEUTICAL FORMULATION AND PHARMACEUTICAL COMBINATION FOR TREATMENT AND PREVENTION OF PSORIASIS” (priority 2021, published 2024)

Legend:
[1] = system: IMQ induced psoriasis model using Balb/c mice; assay type: in vivo
Procedure: The experimental procedure and doses and route of administration are same as IMQ model. Test item IS217 was administered subcutaneously to diseased animals at different dose levels of 0.15 mg/kg, 0.30 mg/kg, 0.60 mg/kg, 1.2 mg/kg, 2.4 mg/kg and 4.8 mg/kg.

[2] = system: isolated rabbit erythrocyte; assay type: cell-based
Procedure: This study was conducted to test whether IS217 induced haemolysis or not. The study was conducted in IV intended concentration.

[3] = system: TNF-α, IFN-γ, TARC, TSLP, IL-6, IL-8, IL-23, IL-17A and IL-1-0 levels; test: Cytokine levels in LPS stimulated RAW264.7 cells and HaCaT cells; assay type: cell-based; settings: LPS stimulated RAW264.7 and HaCaT cells, vs untreated controls
Description: In pathogenesis of psoriasis, angiogenesis and tyrosine kinases involves cell proliferation, cell migration, DNA Fragmentation and tube formation in endothelial cells. […] RAW264.7 cells (Murine macrophage cell line) which is stimulated with LPS and in HaCaT cells human keratinocytes (HaCaT) TNF-α, IFN-γ, TARC, TSLP, IL-6, IL-8, IL-23, IL-17A and IL-1-0 levels were overexpressed in disease pathogenesis, but when treated with IS217, all the above mentioned cytokines levels are decreased when compared with untreated controls.

Topoisomerase II enzyme = target: T1, Topoisomerase II enzyme (Homo sapiens, UniProt P11388); test: Topoisomerase II inhibition (kinetoplast DNA decatenation, agarose gel); assay type: biochemical
T1 construct: purchased TopoGen TG2000H-1
Procedure: Topoisomerase II inhibitory potential of IS217 was evaluated using widely reported kinetoplast DNA as test system in presence of Topoisomerase II enzyme. IS217 was tested at concentrations ranging from 0.01 μg/ml to 1 mg/ml. Doxorubucin hydrochloride and nalidixic acid were used as positive controls at the concentration of 10 μM and 1 mg/ml, respectively.
Inhibition of release of decatenated KDNA products was used as a specific marker to assess the inhibitory activity of IS217 on topoisomerase II enzyme, which was determined by using 1% agarose gel electrophoresis.

CYP1A2 = target: T2, CYP1A2 (Homo sapiens, UniProt P05177); test: in vitro; assay type: in vitro ADME
T2 construct: purchased
Procedure: The study design determined inhibition potential of test item (IS217) for CYP3A4, CYP1A2, CYP2C9, CYP2D6 and CYP2C19 using high throughput inhibitor screening kit. The experiment was performed with concentrations range of 10 μg/mL to 0.005 μg/mL of test compound IS217. Positive controls taken were specific to individual kit, which were taken as follows:
At the end of incubation period, metabolism of fluorescent substrates to their metabolites was read using fluorescent multiwall spectrophotometer (Biotek reader). Very less (<20% at 10 μg/mL) to no inhibition potential was observed towards enzymes CYP3A4, CYP2C9, CYP2D6, CYP1A2 and CYP2C19.

[4] = Stability of IS217 API, accelerated condition 5 ± 3° C.; assay type: physicochemical
Procedure: The purpose of stability testing is to provide evidence on how the quality of a drug substance or drug product varies with time under the influence of a variety of environmental factors such as temperature, humidity, etc. and to establish a re-test period for the drug substance or a shelf life for the drug product and recommended storage conditions. The study was conducted according to the WHO and Schedule-Y guidelines.
The drug substance is a lyophilized white fluffy powder, and it was filled at sterile condition in glass injection vial which has airlock-rubber capping. This container closure system is the same as or simulates the packaging proposed for storage and distribution.
This study has included testing of those attributes of the drug substance that are susceptible to change during storage and are likely to influence quality, safety and/or efficacy. The testing was covered, as appropriate, the physical and chemical attributes.
The following test attributes have been selected according to above said guidelines. • Appearance; odour; colour; colour of solution (when the drug substance is soluble in solvent); clarity of solution; degradation and assessment of container closure system
The studies were conducted under appropriate storage conditions (with appropriate tolerances) that test drug substance thermal stability and its sensitivity to moisture. The drug substance is intended to store for 24 months. Accordingly, long term stability studies were done for 24 months. The details of the storage conditions have been furnished hereunder.
Name of the product: IS217; Batch size: 200 m·mol; Storage conditions: 5±3° C.

[5] = system: TPA induced ear inflammation model in C57BL/6 mice; assay type: in vivo
Description: The experimental procedure and doses and route of administration are same as IMQ model.

T1 sequence (P11388 whole entry): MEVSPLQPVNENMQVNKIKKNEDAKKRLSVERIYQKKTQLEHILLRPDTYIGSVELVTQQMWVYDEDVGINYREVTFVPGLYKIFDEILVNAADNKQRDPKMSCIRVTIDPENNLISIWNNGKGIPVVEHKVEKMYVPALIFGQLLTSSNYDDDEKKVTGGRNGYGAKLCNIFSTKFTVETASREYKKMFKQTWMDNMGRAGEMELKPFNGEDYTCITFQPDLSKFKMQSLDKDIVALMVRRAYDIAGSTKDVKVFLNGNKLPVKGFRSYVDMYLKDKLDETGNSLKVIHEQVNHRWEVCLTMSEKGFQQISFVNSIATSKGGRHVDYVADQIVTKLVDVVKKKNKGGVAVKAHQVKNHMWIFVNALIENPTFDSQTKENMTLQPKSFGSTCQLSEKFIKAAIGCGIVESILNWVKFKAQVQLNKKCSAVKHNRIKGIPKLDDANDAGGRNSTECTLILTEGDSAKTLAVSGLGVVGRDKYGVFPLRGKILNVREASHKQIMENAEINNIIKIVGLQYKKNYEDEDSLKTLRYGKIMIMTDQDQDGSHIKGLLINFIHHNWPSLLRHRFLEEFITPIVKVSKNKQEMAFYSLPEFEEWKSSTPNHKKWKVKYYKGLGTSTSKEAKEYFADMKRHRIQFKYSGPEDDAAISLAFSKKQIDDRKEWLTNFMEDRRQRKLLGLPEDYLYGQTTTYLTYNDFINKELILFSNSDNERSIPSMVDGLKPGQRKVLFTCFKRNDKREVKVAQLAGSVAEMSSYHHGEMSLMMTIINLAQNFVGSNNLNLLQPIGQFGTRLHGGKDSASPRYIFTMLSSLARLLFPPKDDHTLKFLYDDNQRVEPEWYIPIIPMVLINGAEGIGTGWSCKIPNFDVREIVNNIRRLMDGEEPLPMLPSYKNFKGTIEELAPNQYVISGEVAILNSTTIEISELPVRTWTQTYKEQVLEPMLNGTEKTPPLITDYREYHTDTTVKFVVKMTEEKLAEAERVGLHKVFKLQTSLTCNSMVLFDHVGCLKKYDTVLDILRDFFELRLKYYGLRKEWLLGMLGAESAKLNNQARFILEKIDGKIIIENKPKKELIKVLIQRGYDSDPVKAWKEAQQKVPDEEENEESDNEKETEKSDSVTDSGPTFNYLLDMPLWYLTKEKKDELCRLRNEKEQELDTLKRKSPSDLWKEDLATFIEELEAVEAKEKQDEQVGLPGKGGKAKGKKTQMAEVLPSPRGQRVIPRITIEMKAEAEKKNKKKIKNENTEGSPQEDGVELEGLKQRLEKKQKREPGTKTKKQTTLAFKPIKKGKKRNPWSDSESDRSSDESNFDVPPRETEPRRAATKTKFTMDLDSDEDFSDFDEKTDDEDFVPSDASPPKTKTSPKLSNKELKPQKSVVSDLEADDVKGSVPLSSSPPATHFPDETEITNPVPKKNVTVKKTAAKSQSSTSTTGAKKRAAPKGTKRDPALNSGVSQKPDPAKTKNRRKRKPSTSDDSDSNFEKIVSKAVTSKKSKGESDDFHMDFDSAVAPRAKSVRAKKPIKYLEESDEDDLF
T2 sequence (P05177 whole entry): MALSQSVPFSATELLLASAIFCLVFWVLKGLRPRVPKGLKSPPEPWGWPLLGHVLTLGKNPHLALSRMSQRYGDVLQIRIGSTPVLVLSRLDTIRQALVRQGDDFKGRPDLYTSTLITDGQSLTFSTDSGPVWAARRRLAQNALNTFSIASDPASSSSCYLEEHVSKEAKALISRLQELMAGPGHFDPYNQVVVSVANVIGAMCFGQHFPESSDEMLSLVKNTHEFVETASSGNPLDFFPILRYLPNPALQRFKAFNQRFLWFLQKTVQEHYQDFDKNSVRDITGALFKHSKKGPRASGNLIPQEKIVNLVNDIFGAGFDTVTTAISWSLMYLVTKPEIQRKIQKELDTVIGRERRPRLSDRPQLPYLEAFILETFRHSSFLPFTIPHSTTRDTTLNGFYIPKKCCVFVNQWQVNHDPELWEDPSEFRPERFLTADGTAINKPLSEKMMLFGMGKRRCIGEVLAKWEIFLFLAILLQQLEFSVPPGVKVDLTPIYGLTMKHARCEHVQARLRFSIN

With “H-FAKKFAKKFK-OH [IS217, H-Phe-Ala-Lys-Lys-Phe-Ala-Lys-Lys-Phe-Lys-OH]” the “inhibition of ear thickness” value ([1]; 0.3 mg/kg SC) was 36.34%, the “psoriatic score PASI and ear punch biopsy” value ([1]; IS217 SC 0.15-4.8 mg/kg q.d., 8 days) was “lowering of” and the TNF-α level ([1]; SC 0.15-4.8 mg/kg) was “no trend”. The “ear thickness (life phase), punch biopsy, cumulative psoriatic scoring and spleen weight” value ([1]; dose level of 0.3 mg/kg SC) was “maximum effect”, the “Ear homogenate TNF-α, IL-23, MPO” value ([1]; p < 0.01) was “MPO reduction” and the “mean hemoglobin value compared with negative control and positive control” value [2] was “non-significant”. For the same substance, the mean haemolytic index ([2]; red cells of rabbit) was 0%, the “cytokines levels (TNF-α, IFN-γ, TARC, TSLP, IL-6, IL-8, IL-23, IL-17A, IL-1-0)” value [3] was “decreased” and the “topoisomerase II enzyme inhibition” value (Topoisomerase II enzyme; 0.01 μg/ml to 10 μg/ml) was “no topoisomerase II enzyme inhibition”. The “topoisomerase II enzyme inhibition” value (Topoisomerase II enzyme; 100 μg/ml) was “some extent of inhibition”, the “topoisomerase II enzyme inhibition” value (Topoisomerase II enzyme; 1 mg/ml, highest tested concentration) was “better inhibition” and the inhibition at 10 μg/mL (CYP1A2) was under 20%. The “inhibition potential towards CYP1A2 as compared to others” value (CYP1A2) was “slightly higher potential”, the “API calculated on the anhydrous basis (OAB)” value (shortened to “API calculated”) ([4]; 5 ± 3° C., 1 M) was 99.36% and the “Related substances (By HPLC), Any Max. Impurity” value ([4]; 5 ± 3° C., 1 M) was 0.52%. The “Related substances (By HPLC), Total Impurity” value ([4]; 5 ± 3° C., 1 M) was 0.63%, the “Solubility (Soluble in water)” value ([4]; 5 ± 3° C., 1 M) was “Complies” and the “Water Content (By Karl Fischer-Titrator)” value ([4]; 5 ± 3° C., 1 M) was 4.61% w/w. The “Appearance, change” value ([4]; 5 ± 3° C., 1st month) was “No change”, the “Assessment of container closure system, change” value (from here on “Assessment … change”) ([4]; 5 ± 3° C., 1st month) was “No change” and the “Clarity of solution, change” value ([4]; 5 ± 3° C., 1st month) was “No change”. The “Color of Solution, change” value ([4]; 5 ± 3° C., 1st month) was “No change”, the “Color, change” value ([4]; 5 ± 3° C., 1st month) was “No change” and the “Odor, change” value ([4]; 5 ± 3° C., 1st month) was “No change”. The “API calculated” value ([4]; 5 ± 3° C., 2 M) was 99.25%, the “Related substances (By HPLC), Any Max. Impurity” value ([4]; 5 ± 3° C., 2 M) was 0.53% and the “Related substances (By HPLC), Total Impurity” value ([4]; 5 ± 3° C., 2 M) was 0.76%. The “Solubility (Soluble in water)” value ([4]; 5 ± 3° C., 2 M) was “Complies”, the “Water Content (By Karl Fischer-Titrator)” value ([4]; 5 ± 3° C., 2 M) was 4.55% w/w and the “Appearance, change” value ([4]; 5 ± 3° C., 2nd month) was “No change”. The “Assessment … change” value ([4]; 5 ± 3° C., 2nd month) was “No change”, the “Clarity of solution, change” value ([4]; 5 ± 3° C., 2nd month) was “No change” and the “Color of Solution, change” value ([4]; 5 ± 3° C., 2nd month) was “No change”. The “Color, change” value ([4]; 5 ± 3° C., 2nd month) was “No change”, the “Odor, change” value ([4]; 5 ± 3° C., 2nd month) was “No change” and the “API calculated” value ([4]; 5 ± 3° C., 3 M) was 99.06%. The “Related substances (By HPLC), Any Max. Impurity” value ([4]; 5 ± 3° C., 3 M) was 0.59%, the “Related substances (By HPLC), Total Impurity” value ([4]; 5 ± 3° C., 3 M) was 0.94% and the “Solubility (Soluble in water)” value ([4]; 5 ± 3° C., 3 M) was “Complies”. The “Water Content (By Karl Fischer-Titrator)” value ([4]; 5 ± 3° C., 3 M) was 4.60% w/w, the “Appearance, change” value ([4]; 5 ± 3° C., 3rd month) was “No change” and the “Assessment … change” value ([4]; 5 ± 3° C., 3rd month) was “No change”. For the same substance, the “Clarity of solution, change” value ([4]; 5 ± 3° C., 3rd month) was “No change”, the “Color of Solution, change” value ([4]; 5 ± 3° C., 3rd month) was “No change” and the “Color, change” value ([4]; 5 ± 3° C., 3rd month) was “No change”. The “Odor, change” value ([4]; 5 ± 3° C., 3rd month) was “No change”, the “API calculated” value ([4]; 5 ± 3° C., 6 M) was 99.22% and the “Related substances (By HPLC), Any Max. Impurity” value ([4]; 5 ± 3° C., 6 M) was 0.43%. The “Related substances (By HPLC), Total Impurity” value ([4]; 5 ± 3° C., 6 M) was 0.78%, the “Solubility (Soluble in water)” value ([4]; 5 ± 3° C., 6 M) was “Complies” and the “Water Content (By Karl Fischer-Titrator)” value ([4]; 5 ± 3° C., 6 M) was 4.62% w/w. The “Appearance, change” value ([4]; 5 ± 3° C., 6th month) was “No change”, the “Assessment … change” value ([4]; 5 ± 3° C., 6th month) was “No change” and the “Clarity of solution, change” value ([4]; 5 ± 3° C., 6th month) was “No change”. The “Color of Solution, change” value ([4]; 5 ± 3° C., 6th month) was “No change”, the “Color, change” value ([4]; 5 ± 3° C., 6th month) was “No change” and the “Odor, change” value ([4]; 5 ± 3° C., 6th month) was “No change”. For the same substance, the “API calculated” value ([4]; 5 ± 3° C., Initial) was 99.28%, the “Related substances (By HPLC), Any Max. Impurity” value ([4]; 5 ± 3° C., Initial) was 0.60% and the “Related substances (By HPLC), Total Impurity” value ([4]; 5 ± 3° C., Initial) was 0.72%. For the same substance, the Remark ([4]; 5 ± 3° C., Initial) was “Complies”, the “Solubility (Soluble in water)” value ([4]; 5 ± 3° C., Initial) was “Complies” and the “Water Content (By Karl Fischer-Titrator)” value ([4]; 5 ± 3° C., Initial) was 4.66% w/w. For the same substance, the “stability of IS217 API” value ([4]; 6 months at accelerated condition 5 ± 3° C.) was “stable”, the “stability of drug substance” value ([4]; refrigerator (5 ± 3° C.) conditions for 24 months, concluded from Tables 13 to 16) was “stable” and the “reduction in IL-23 levels in ear tissue homogenate” value ([5]; 0.60 mg/kg) was 42.12%. For the same substance, the “maximum ear thickness inhibition” value ([5]; 1.2 mg/kg) was 80.36%, the MPO levels ([5]; 1.2 mg/kg SC, conclusion of in vivo studies, model not stated) was “significant reduction” and the absolute ear thickness ([5]; 1.2 mg/kg-4.8 mg/kg) was “significant reduction”. For the same substance, the “ear thickness (absolute, histopathology, ear punch biopsy)” value ([5]; IS217 (all doses) < MTX, p < 0.001) was “Decreased ear” and the “Ear homogenate ELISA TNF-α, IL-23, IL-6, MPO” value ([5]; p < 0.01) was “MPO reduction”.
